Test results as given in PubChem BioAssay (NCI).
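In this assay, cells in 96-well plates receive the compound at five concentrations for 48 hours. Endpoints are linearly interpolated between the surrounding concentrations. Abbreviation: GI50, concentration required for 50% inhibition of growth. TGI denotes the concentration required for complete inhibition of growth.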

Key:
Experiment in all cases: NCI anticancer screen, dose series, 48 h
SK-MEL-28 melanoma = tested on: SK-MEL-28 melanoma
M14 melanoma = tested on: M14 melanoma
NCI-H23 lung = tested on: NCI-H23 lung
SK-MEL-5 melanoma = tested on: SK-MEL-5 melanoma
NCI-H522 lung = tested on: NCI-H522 lung
NCI-H460 lung = tested on: NCI-H460 lung
OVCAR-8 ovarian = tested on: OVCAR-8 ovarian
RPMI-8226 leukemia = tested on: RPMI-8226 leukemia
T-47D breast = tested on: T-47D breast
SF-268 CNS = tested on: SF-268 CNS

Cc1ccc(NC(=O)c2ccnc(C(F)(F)F)c2)cc1-c1cc(OCCO)nc(N2CCOCC2)c1 showed a GI50 (SK-MEL-28 melanoma) of 0.377 µM, a TGI (SK-MEL-28 melanoma) of 11.3 µM and a GI50 (M14 melanoma) of 0.63 µM. The TGI (M14 melanoma) was 5.25 µM, the GI50 (NCI-H23 lung) was 0.916 µM and the TGI (NCI-H23 lung) was 12.5 µM. The GI50 (SK-MEL-5 melanoma) was 1.5 µM, the TGI (SK-MEL-5 melanoma) was 4.71 µM and the GI50 (NCI-H522 lung) was 1.55 µM. It also gave a TGI (NCI-H522 lung) of 17.2 µM, a GI50 (NCI-H460 lung) of 2.81 µM and a TGI (NCI-H460 lung) of 13.5 µM. For the same compound, the GI50 (OVCAR-8 ovarian) was 4.08 µM, the TGI (OVCAR-8 ovarian) was > 100 µM and the GI50 (RPMI-8226 leukemia) was 2.7 µM. The TGI (RPMI-8226 leukemia) was > 100 µM, the GI50 (T-47D breast) was 3.31 µM and the TGI (T-47D breast) was > 100 µM. The GI50 (SF-268 CNS) was 4.08 µM and the TGI (SF-268 CNS) was 23.7 µM.
O=C(O)C(/C=C/c1ccco1)=N\Nc1nc(-c2ccc(Cl)cc2)cs1 was tested, and the GI50 (SK-MEL-28 melanoma) was 25.7 µM, the TGI (SK-MEL-28 melanoma) was > 50 µM and the GI50 (M14 melanoma) was 12.7 µM. The TGI (M14 melanoma) was > 50 µM, the GI50 (NCI-H23 lung) was 15.2 µM and the TGI (NCI-H23 lung) was > 50 µM. For the same compound, the GI50 (SK-MEL-5 melanoma) was 14.8 µM, the TGI (SK-MEL-5 melanoma) was > 50 µM and the GI50 (NCI-H522 lung) was 7.61 µM. The TGI (NCI-H522 lung) was 41.3 µM, the GI50 (NCI-H460 lung) was 8.36 µM and the TGI (NCI-H460 lung) was > 50 µM. The GI50 (OVCAR-8 ovarian) was 6.93 µM, the TGI (OVCAR-8 ovarian) was > 50 µM and the GI50 (RPMI-8226 leukemia) was 15.8 µM. For the same compound, the TGI (RPMI-8226 leukemia) was > 50 µM, the GI50 (T-47D breast) was 17.3 µM and the TGI (T-47D breast) was > 50 µM. For the same compound, the GI50 (SF-268 CNS) was 11.1 µM and the TGI (SF-268 CNS) was > 50 µM.
With COc1ccc(C2=NNC(c3ccc(-c4ccc(OC)cc4[N+](=O)[O-])o3)C2)cc1 (stereo not given) the GI50 (SK-MEL-28 melanoma) was > 100 µM, the TGI (SK-MEL-28 melanoma) was > 100 µM and the GI50 (M14 melanoma) was 71.3 µM. For the same compound, the TGI (M14 melanoma) was > 100 µM, the GI50 (NCI-H23 lung) was 33 µM and the TGI (NCI-H23 lung) was > 100 µM. For the same compound, the GI50 (SK-MEL-5 melanoma) was 72.7 µM, the TGI (SK-MEL-5 melanoma) was > 100 µM and the GI50 (NCI-H522 lung) was 34.9 µM. For the same compound, the TGI (NCI-H522 lung) was > 100 µM, the GI50 (NCI-H460 lung) was 46.8 µM and the TGI (NCI-H460 lung) was > 100 µM. It also gave a GI50 (OVCAR-8 ovarian) of 21.2 µM, a TGI (OVCAR-8 ovarian) of 75.5 µM and a GI50 (RPMI-8226 leukemia) of 36.8 µM. The TGI (RPMI-8226 leukemia) was > 100 µM, the GI50 (T-47D breast) was 18.5 µM and the TGI (T-47D breast) was 88.1 µM. The GI50 (SF-268 CNS) was 20.3 µM and the TGI (SF-268 CNS) was 53.2 µM.
With S=C(Nc1ccccc1)c1ccccn1 the GI50 (SK-MEL-28 melanoma) was > 100 µM, the TGI (SK-MEL-28 melanoma) was > 100 µM and the GI50 (M14 melanoma) was 28 µM. The TGI (M14 melanoma) was 97.1 µM, the GI50 (NCI-H23 lung) was 75 µM and the TGI (NCI-H23 lung) was > 100 µM. For the same compound, the GI50 (SK-MEL-5 melanoma) was 69.2 µM, the TGI (SK-MEL-5 melanoma) was > 100 µM and the GI50 (NCI-H522 lung) was 14 µM. The TGI (NCI-H522 lung) was > 100 µM, the GI50 (NCI-H460 lung) was 63.2 µM and the TGI (NCI-H460 lung) was > 100 µM. The GI50 (OVCAR-8 ovarian) was 75.3 µM, the TGI (OVCAR-8 ovarian) was > 100 µM and the GI50 (RPMI-8226 leukemia) was 41.7 µM. The TGI (RPMI-8226 leukemia) was > 100 µM, the GI50 (T-47D breast) was > 100 µM and the TGI (T-47D breast) was > 100 µM. For the same compound, the GI50 (SF-268 CNS) was 77.3 µM and the TGI (SF-268 CNS) was > 100 µM.
Work on COc1ccc(Cl)cc1N1C(=O)C(Cl)=C(Nc2cccc(O)c2)C1=O yielded a GI50 (SK-MEL-28 melanoma) of 24.4 µM, a TGI (SK-MEL-28 melanoma) of 83.8 µM and a GI50 (M14 melanoma) of 14 µM. For the same compound, the TGI (M14 melanoma) was 29.9 µM, the GI50 (NCI-H23 lung) was 16.6 µM and the TGI (NCI-H23 lung) was 41.4 µM. It also gave a GI50 (SK-MEL-5 melanoma) of 23 µM, a TGI (SK-MEL-5 melanoma) of 39.8 µM and a GI50 (NCI-H522 lung) of 6.48 µM. For the same compound, the TGI (NCI-H522 lung) was 20.1 µM, the GI50 (NCI-H460 lung) was 17.9 µM and the TGI (NCI-H460 lung) was 48.6 µM. For the same compound, the GI50 (OVCAR-8 ovarian) was 15.1 µM, the TGI (OVCAR-8 ovarian) was 31.2 µM and the GI50 (RPMI-8226 leukemia) was 7.01 µM. The TGI (RPMI-8226 leukemia) was 32.3 µM, the GI50 (T-47D breast) was 22.6 µM and the TGI (T-47D breast) was > 100 µM. For the same compound, the GI50 (SF-268 CNS) was 13.2 µM and the TGI (SF-268 CNS) was 30.7 µM.
In the case of CC(=O)OCC(=O)[C@@]1(O)[C@H](C)C[C@H]2[C@@H]3C=C(C)C4=Cc5c(cnn5-c5ccc(F)cc5)C[C@]4(C)[C@H]3[C@@H](O)C[C@@]21C, the GI50 (SK-MEL-28 melanoma) is reported as 1.33 µM, the TGI (SK-MEL-28 melanoma) is reported as 2.81 µM and the GI50 (M14 melanoma) is reported as 1.71 µM. It also gave a TGI (M14 melanoma) of 3.5 µM, a GI50 (NCI-H23 lung) of 2.08 µM and a TGI (NCI-H23 lung) of 5.8 µM. The GI50 (SK-MEL-5 melanoma) was 1.26 µM, the TGI (SK-MEL-5 melanoma) was 2.53 µM and the GI50 (NCI-H522 lung) was 1.84 µM. The TGI (NCI-H522 lung) was 3.82 µM, the GI50 (NCI-H460 lung) was 1.47 µM and the TGI (NCI-H460 lung) was 3.16 µM. It also gave a GI50 (OVCAR-8 ovarian) of 2.58 µM, a TGI (OVCAR-8 ovarian) of 11.3 µM and a GI50 (RPMI-8226 leukemia) of 0.161 µM. The TGI (RPMI-8226 leukemia) was 1.14 µM, the GI50 (T-47D breast) was 2.75 µM and the TGI (T-47D breast) was 8.72 µM. For the same compound, the GI50 (SF-268 CNS) was 2.48 µM and the TGI (SF-268 CNS) was 8.39 µM.
With COC(=O)c1c2c(c(C)[n+]([O-])c1C)C(=O)C=C(NCc1ccc(Cl)cc1)C2=O the GI50 (SK-MEL-28 melanoma) was 0.733 µM, the TGI (SK-MEL-28 melanoma) was 2.59 µM and the GI50 (M14 melanoma) was 0.202 µM. It also gave a TGI (M14 melanoma) of 1.68 µM, a GI50 (NCI-H23 lung) of 0.572 µM and a TGI (NCI-H23 lung) of 2.9 µM. For the same compound, the GI50 (SK-MEL-5 melanoma) was 0.176 µM, the TGI (SK-MEL-5 melanoma) was 0.337 µM and the GI50 (NCI-H522 lung) was 0.508 µM. It also gave a TGI (NCI-H522 lung) of 2.04 µM, a GI50 (NCI-H460 lung) of 0.397 µM and a TGI (NCI-H460 lung) of 1.71 µM. The GI50 (OVCAR-8 ovarian) was 0.296 µM, the TGI (OVCAR-8 ovarian) was 1.44 µM and the GI50 (RPMI-8226 leukemia) was 1.24 µM. For the same compound, the TGI (RPMI-8226 leukemia) was 4.7 µM, the GI50 (T-47D breast) was 0.151 µM and the TGI (T-47D breast) was 1.7 µM. It also gave a GI50 (SF-268 CNS) of 0.747 µM and a TGI (SF-268 CNS) of 2.96 µM.
